Measured values from patent publication US12448433B2, “Human ApoB100 epitopes, methods and uses for modulating inflammatory responses, and treating adverse cardiovascular events, disease and atherosclerosis” (LA JOLLA INSTITUTE FOR ALLERGY AND IMMUNOLOGY, priority 2015, dated 2025).

How the values were obtained:
DPB1*02:01 = experiment: Peptide binding to HLA-DP allele, competition assay; set-up: species or system human
Description: (§1) Peptide binding to MHC-II requires anchor residues in certain positions and thus can be predicted using computer algorithms. Affinity can be measured experimentally using a competition assay (1). Both are excellent screening tools. However, affinity must be measured separately for each MHC-II allele. Humans express molecules encoded in four different MHC-II loci, denominated HLA-DRB1, DRB3/4/5, DP and DQ. Allelic variation is large, and most people are heterozygous at each locus, thus expressing up to 8 relevant MHC-II alleles. CD4 T cell responses strictly require that the antigenic peptide binds to the relevant MHC-II.
(§2) To identify peptides that could potentially be used in human patients, 30 peptides were screened for binding to 26 HLA alleles by competition assay.

DPB1*05:01 = experiment: as above; set-up: species or system human
Description: as §1, §2

DPB1*04:02 = experiment: as above; set-up: species or system human
Description: as §1, §2

DPB1*14:01 = experiment: as above; set-up: species or system human
Description: as §1, §2

DRB1*04:05 = DRB1*04:05 (Homo sapiens, UniProt P01903+P01911, A100R/A169T/D86S/F76Y/I96L/K127E/L162R/M171V/N62H/P40V/Q125Y/R42H/S133A/S149N/S66Y/V115G/V209L/W38E); experiment: Peptide binding to HLA-DR allele, competition assay
Description: as §1, §2

DRB1*09:01 = DRB1*09:01 (Homo sapiens, UniProt P01903+P01911, A100R/A103E/D57H/D86V/F55Y/F60I/F76Y/I96F/K127E/L162R/M171V/P40D/Q125H/Q99R/R33Q/R42F/S133A/S66N/T210M/V115G/W38K/Y107V/Y59G/Y89S); experiment: as above
Description: as §1, §2

DPB1*04:01 = molecular target: T1, DPB1*04:01 (Homo sapiens, UniProt P04440); experiment: Peptide binding to HLA-DP allele, competition assay
T1 sequence (P04440 30-258): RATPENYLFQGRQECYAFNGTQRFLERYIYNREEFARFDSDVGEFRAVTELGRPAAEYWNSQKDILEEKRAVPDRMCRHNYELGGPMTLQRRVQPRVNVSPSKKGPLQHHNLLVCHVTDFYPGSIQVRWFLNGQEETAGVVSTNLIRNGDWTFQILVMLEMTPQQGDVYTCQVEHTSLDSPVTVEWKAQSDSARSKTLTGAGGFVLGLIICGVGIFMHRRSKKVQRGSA
T1 sequence (P20036 29-260 partner): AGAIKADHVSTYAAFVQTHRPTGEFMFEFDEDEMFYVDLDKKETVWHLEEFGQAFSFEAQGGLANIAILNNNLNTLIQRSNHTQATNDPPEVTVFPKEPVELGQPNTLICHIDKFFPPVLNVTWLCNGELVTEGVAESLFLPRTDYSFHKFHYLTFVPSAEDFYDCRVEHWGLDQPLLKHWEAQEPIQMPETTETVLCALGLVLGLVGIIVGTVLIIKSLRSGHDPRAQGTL
Description: as §1, §2

DRB1*11:01 = DRB1*11:01 (Homo sapiens, UniProt P01903+P01911, A100R/A169T/A87E/I96F/K41T/L162R/M171V/P40S/Q125H/Q178H/Q39Y/Q99D/R42S/S66Y/T262R/V115G/W38E); experiment: Peptide binding to HLA-DR allele, competition assay
Description: as §1, §2

HLA-DRB1*01:01 = HLA-DRB1*01:01 (Homo sapiens, UniProt P01903+P01911, A100R/D57E/F55L/F60I/F76Y/I96L/L162R/M171V/P40L/Q125E/R42F/V115G/Y59C); experiment: as above
Description: as §1, §2

DRB1*13:02 = DRB1*13:02 (Homo sapiens, UniProt P01903+P01911, A100E/A169T/K41T/L162R/M171V/P40S/Q125H/Q178H/Q39Y/Q99D/R42S/S66N/T262R/V115G/W38E/Y61H); experiment: as above
Description: as §1, §2

DQB1*06:02 = experiment: Peptide binding to HLA-DQ allele, competition assay; set-up: species or system human
Description: as §1, §2

DQB1*05:01 = experiment: as above; set-up: species or system human
Description: as §1, §2

DPB1*03:01 = experiment: Peptide binding to HLA-DP allele, competition assay; set-up: species or system human
Description: as §1, §2

DRB1*15:01 = DRB1*15:01 (Homo sapiens, UniProt P01903+P01911); experiment: Peptide binding to HLA-DR allele, competition assay
Description: as §1, §2

DRB5*01:01 = DRB5*01:01 (Homo sapiens, UniProt P01903+Q30154); experiment: as above
Description: as §1, §2

IC50 (DPB1*02:01) [nM] | IC50 (DPB1*05:01) [nM] | IC50 (DPB1*04:02) [nM] | IC50 (DPB1*14:01) [nM] | IC50 (DRB1*04:05) [nM] | IC50 (DRB1*09:01) [nM] | IC50 (DPB1*04:01) [nM] | IC50 (DRB1*11:01) [nM] | IC50 (HLA-DRB1*01:01) [nM] | IC50 (DRB1*13:02) [nM] | IC50 (DQB1*06:02) [nM] | IC50 (DQB1*05:01) [nM] | IC50 (DPB1*03:01) [nM] | IC50 (DRB1*15:01) [nM] | IC50 (DRB5*01:01) [nM] | Structure (SMILES)
200 | 369 | 93 | 1780 | 18 | 46 | 16 | – | – | – | – | – | – | – | – | CC[C@H](C)[C@H](NC(=O)[C@H](C)NC(=O)[C@H](CCCCN)NC(=O)[C@H](Cc1ccccc1)NC(=O)[C@@H](NC(=O)[C@H](CCC(=O)O)NC(=O)[C@@H](N)CCC(N)=O)C(C)C)C(=O)N[C@@H](CCC(N)=O)C(=O)N[C@@H](CO)C(=O)N[C@@H](CC(C)C)C(=O)N[C@@H](CCCCN)C(=O)N[C@H](C(=O)N[C@H](C(=O)N[C@@H](CCC(=O)O)C(=O)N[C@H](C(=O)O)C(C)C)[C@@H](C)O)[C@@H](C)O [Peptide 3563.0024]
– | 9.8 | – | 183 | – | 17 | – | 1200 | 7.1 | 1.1 | 245 | 2630 | – | – | – | CC(C)C[C@H](NC(=O)CNC(=O)[C@@H](N)CCCNC(=N)N)C(=O)N[C@@H](CCCCN)C(=O)N[C@@H](CC(C)C)C(=O)N[C@@H](C)C(=O)N[C@H](C(=O)N[C@@H](C)C(=O)N[C@@H](CC(C)C)C(=O)N[C@@H](CO)C(=O)N[C@@H](CC(C)C)C(=O)N[C@@H](CO)C(=O)N[C@@H](CC(N)=O)C(=O)N[C@@H](CCCCN)C(=O)N[C@@H](Cc1ccccc1)C(=O)O)[C@@H](C)O [Peptide 3563.0020]
– | – | – | 132 | – | – | – | – | – | – | 66 | – | 90 | 1.1 | 18 | CC[C@H](C)[C@H](N)C(=O)N[C@@H](CCCCN)C(=O)N[C@@H](Cc1c[nH]cn1)C(=O)N[C@H](C(=O)N[C@@H](Cc1ccc(O)cc1)C(=O)N[C@@H](C)C(=O)N[C@H](C(=O)N[C@@H](CO)C(=O)N[C@@H](CO)C(=O)N[C@@H](C)C(=O)N[C@@H](C)C(=O)N[C@@H](CC(C)C)C(=O)N[C@@H](CO)C(=O)N[C@@H](C)C(=O)N[C@@H](CO)C(=O)O)[C@@H](C)CC)[C@@H](C)CC [Peptide 3563.0009]
